ChEMBL document CHEMBL4342511, “Discovery and Optimization of wt-RET/KDR-Selective Inhibitors of RETV804M Kinase” (ACS Med Chem Lett, 2020)
In brackets after ≈: the same amount, converted by molar mass.

Assays:
[1] = organism: Homo sapiens; assay: Selectivity index, ratio of IC50 for GST-tagged human RET expressed in baculovirus to IC50 for recombinant N-Terminal GST-tagged human RET V804M mutant (658 to end residues)
[2] = organism: Homo sapiens; assay: Selectivity index, ratio of IC50 for N-terminal His6-tagged recombinant human KDR (790 to end residue) expressed in baculovirus in Sf21 insect cells to IC50 for recombinant N-Terminal GST-tagged human RET V804M mutant (658 to end residues)
[3] = organism: Homo sapiens; assay: Selectivity index, ratio of IC50 for RET (unknown origin) expressed in BaF3 cells to IC50 for RET V804M mutant (unknown origin) expressed […] cells; format: cell-based
[4] = organism: Homo sapiens; assay: Selectivity index, ratio of IC50 for KDR (unknown origin) expressed in BaF3 cells to IC50 for RET V804M mutant (unknown origin) expressed […] cells; format: cell-based
[5] = biological target: Proto-oncogene tyrosine-protein kinase receptor Ret (Homo sapiens, UniProt P07949, V804M)
[6] = Kinetic solubility of compound; format: physicochemical; details: read-out: Kinetic_solubility
[7] = Apparent permeability in human Caco2 cells; format: ADME, cell-based; details: Caco-2
[8] = Metabolic stability in mouse liver microsomes assessed as intrinsic clearance; format: ADME, Microsome; details: read-out: CLH
[9] = Efflux ratio of apparent permeability in human Caco2 cells; format: ADME, cell-based; details: Caco-2

Sequence of Proto-oncogene tyrosine-protein kinase receptor Ret (P07949 29-1114 V804M limits assumed): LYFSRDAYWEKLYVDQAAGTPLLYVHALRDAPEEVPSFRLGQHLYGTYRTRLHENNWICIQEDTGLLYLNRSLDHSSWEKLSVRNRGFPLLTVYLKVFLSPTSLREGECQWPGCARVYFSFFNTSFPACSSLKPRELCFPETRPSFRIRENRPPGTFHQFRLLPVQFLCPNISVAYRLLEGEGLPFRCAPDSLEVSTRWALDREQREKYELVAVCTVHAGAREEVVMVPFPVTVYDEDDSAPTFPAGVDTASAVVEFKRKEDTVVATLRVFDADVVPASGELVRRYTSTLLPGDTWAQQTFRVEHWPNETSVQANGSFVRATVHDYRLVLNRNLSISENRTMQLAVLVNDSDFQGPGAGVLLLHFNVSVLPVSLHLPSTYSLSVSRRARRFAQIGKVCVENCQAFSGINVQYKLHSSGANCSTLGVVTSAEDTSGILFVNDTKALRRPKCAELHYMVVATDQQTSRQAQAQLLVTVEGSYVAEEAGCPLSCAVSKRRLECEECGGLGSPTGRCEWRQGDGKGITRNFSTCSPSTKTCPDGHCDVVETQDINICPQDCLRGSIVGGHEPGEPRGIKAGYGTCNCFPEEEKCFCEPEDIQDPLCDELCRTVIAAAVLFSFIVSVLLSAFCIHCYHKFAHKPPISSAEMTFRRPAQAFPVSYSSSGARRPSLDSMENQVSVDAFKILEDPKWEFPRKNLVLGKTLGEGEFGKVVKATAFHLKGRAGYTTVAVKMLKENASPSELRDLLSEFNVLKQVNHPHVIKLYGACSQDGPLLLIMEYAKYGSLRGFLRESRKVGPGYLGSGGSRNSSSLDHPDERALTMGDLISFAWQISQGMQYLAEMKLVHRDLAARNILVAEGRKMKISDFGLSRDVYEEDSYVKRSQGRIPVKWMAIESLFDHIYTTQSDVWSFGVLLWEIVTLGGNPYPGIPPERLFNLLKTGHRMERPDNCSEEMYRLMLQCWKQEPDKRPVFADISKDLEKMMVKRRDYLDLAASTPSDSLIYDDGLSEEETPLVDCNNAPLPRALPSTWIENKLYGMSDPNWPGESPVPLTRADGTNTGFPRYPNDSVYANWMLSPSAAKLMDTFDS

| Compound | Ratio IC50 [1] | Ratio IC50 [2] | Ratio IC50 [3] | Ratio IC50 [4] | IC50 [5] [nM] | solubility kinetic [6] [µM] | Papp [7] [×10⁻⁶ cm/s] | microsomal CLint [8] [µL/min/mg] | efflux ratio [9] |
| --- | --- | --- | --- | --- | --- | --- | --- | --- | --- |
| c1cc2c(cc1-c1cnn3ccc(NCC4CCNCC4)nc13)OCO2 | 1.2 | 64 | 0.85 | 2.6 | 200 | – | – | – | – |
| c1cc(CNc2ccn3ncc(-c4ccc5cn[nH]c5c4)c3n2)ccn1 | 18 | 83 | 1.9 | 1.9 | 300 | – | – | – | – |
| NS(=O)(=O)c1ccc(-c2cnn3ccc(NCc4ccncc4)nc23)cc1 | 1.3 | 220 | 1 | 1 | 360 | – | – | – | – |
| c1ccc(CNc2ccn3ncc(-c4ccc5c(c4)OCO5)c3n2)cc1 | 0.16 | 2.3 | – | – | 29000 | – | – | – | – |
| CS(=O)(=O)Nc1ccc(-c2cnn3ccc(NCc4ccncc4)nc23)cc1 | 0.28 | 29 | – | – | 1500 | – | – | – | – |
| NC(=O)c1ccc(-c2cnn3ccc(NCc4cccnc4)nc23)cc1 | 13 | 19 | 0.85 | 1.9 | 51 | – | – | – | – |
| c1ccc(-c2cnn3ccc(NCc4ccncc4)nc23)cc1 | 2.4 | 0.96 | – | – | 1140 | – | – | – | – |
| NC(=O)c1ccc(-c2cnn3ccc(NCc4ccccn4)nc23)cc1 | 19 | 22 | 0.9 | 2 | 44 | – | – | – | – |
| CC(=O)Nc1cccc(-c2cnn3ccc(NCc4ccncc4)nc23)c1 | 4 | 22 | – | – | 1600 | – | – | – | – |
| NC(=O)c1ccc(-c2cnn3ccc(NCc4ccncc4)nc23)cc1 | 3.7 | 110 | 0.89 | 2.3 | 20 | – | – | – | – |
| c1cc(Nc2ccn3ncc(-c4ccc5c(c4)OCO5)c3n2)ccn1 | 2.1 | 2.1 | – | – | 63000 | – | – | – | – |
| OCCNc1ccn2ncc(-c3ccc4c(c3)OCO4)c2n1 | 15 | 19 | 1.5 | 1.5 | 130 | – | – | – | – |
| O=C(O)c1ccc(-c2cnn3ccc(NCc4ccncc4)nc23)cc1 | 1.2 | 1.8 | – | – | 560 | – | – | – | – |
| NC(=O)c1cccc(-c2cnn3ccc(NCc4ccncc4)nc23)c1 | – | 8 | – | – | 4300 | – | – | – | – |
| CN(C)C(=O)c1ccc(-c2cnn3ccc(NCc4ccncc4)nc23)cc1 | 1.8 | 3.9 | – | – | 7600 | – | – | – | – |
| c1cc(CNc2ccn3ncc(-c4ccc5c(c4)OCO5)c3n2)ccn1 | 0.64 | 27 | 2.2 | 6.2 | 290 | 30 (≈ 10.4 µg/mL) | – | – | – |
| c1cc2c(cc1-c1cnn3ccc(NCCN4CCCCC4)nc13)OCO2 | 5.3 | 34 | – | – | 660 | – | – | – | – |
| CC(=O)Nc1ccc(-c2cnn3ccc(NCc4ccncc4)nc23)cc1 | 2.6 | 4.4 | – | – | 6700 | – | – | – | – |
| CN(C)CCCNc1ccn2ncc(-c3ccc4c(c3)OCO4)c2n1 | 16 | 410 | 32 | 76 | 19 | > 100 | 22.8 | 62 | 1.4 |
| CN(C)CCNc1ccn2ncc(-c3ccc4c(c3)OCO4)c2n1 | 21 | 540 | 9.8 | 13 | 91 | – | – | – | – |
| CN(C)CCNc1ccn2ncc(-c3ccc(C(N)=O)cc3)c2n1 | 4.7 | 54 | 0.3 | 0.83 | 350 | – | – | – | – |
| c1cc2c(cc1-c1cnn3ccc(NC4CCNCC4)nc13)OCO2 | 1.2 | 17 | – | – | 880 | – | – | – | – |
| c1ccc(CNc2ccn3ncc(-c4ccc5c(c4)OCO5)c3n2)nc1 | 14 | 100 | 3.1 | 7.6 | 39 | – | – | – | – |
